We go through 5 compounds from article PMC9500755, “Albumin-Mediated Size Exclusion Chromatography: The Apparent Molecular Weight of PSMA Radioligands as Novel Parameter to Estimate Their Blood Clearance Kinetics” (Pharmaceuticals, 2022).

Series [1] concerns the target T1, human serum albumin (HSA) (Homo sapiens, UniProt P02768).
T1 construct: purchased Biowest, Nuaillé, France
Put plainly: Albumin-mediated size exclusion chromatography (AMSEC). It counts as in vitro ADME. The note with it: for tR,AMSEC (retention time in AMSEC run): 177Lu-labeled ligand, mobile phase 700 µM HSA in PBS pH 7.4, Superdex 75 Increase, corrected for detector offset, normalized to column 1; for Retention factor k: fraction of time the radioligand is complexed to HSA during the AMSEC run, Equation (2); for MWapp,raw (raw apparent molecular weight): from tR,AMSEC by column calibration, 700 µM HSA in PBS pH 7.4; for MWapp,norm. (normalized apparent molecular weight): from tR,norm. by column calibration; for tR,norm. (normalized retention time): normalized with tR,blank, tR,HSA and tR,acetone, Equation (5); for MWapp,raw in percentage of the MWapp,raw of rhPSMA-7.3: rhPSMA-7.3 = 100%. As for the experimental part:
All size exclusion chromatographic (SEC) experiments were carried out using the above-mentioned HPLC system equipped with a Superdex 75 Increase 10/300 GL gel filtration size exclusion column (fractionation range 70–3 kDa, GE Healthcare, Uppsala, Sweden). Eluents at room temperature, a constant flow rate of 0.8 mL/min, and an acquisition time of 35 min were generally applied. The column was calibrated as recommended by the manufacturer using a commercially available set of proteins (Gel Filtration LMW Calibration Kit, GE Healthcare, Buckinghamshire, UK). Retention times of calibration proteins and calculated calibration parameters are given in the Supplementary Materials (Table S3). UV signal detection occurred at 280 nm.
All retention times of radio signals were corrected for the offset between the UV-vis detector and radio-detector (Δt = 0.084 min). Throughout the development of the AMSEC method, three gel filtration columns of the same type were used for experiments (most data were acquired using column 1). As calculations were based on absolute empirical retention times that inherently differed slightly from column to column, all retention times determined on column 2 and column 3 were mathematically converted to an equivalent retention time on column 1 using the columns’ calibration parameters. A detailed description of these calculations is provided in the Supplementary Materials.
All numerical retention times explicitly given in running text or tables and plotted in diagrams are already corrected for the offset between UV-vis and radio-detector and, if initially determined on columns 2 or 3, converted to the equivalent retention time on column 1 (for detailed information, see Equations (S1) and (S2) and Table S1 in the Supplementary Materials).
AMSEC runs were executed with a solution of HSA (Biowest, Nuaillé, France) in PBS (pH 7.4) at physiological concentration (700 µM) as a mobile phase. Upon injection of approximately 1.0 MBq (5–10 µL) of a radioligand, the elution profile was monitored via radioactivity detection, and the retention times of observed radiopeaks (tR,AMSEC) were determined via semi-automated peak integration. By means of calibration, retention times were translated into a ligand-specific raw apparent molecular weight (MWapp,raw) as a parameter to assess the extent of HSA binding (for calculation, see Equation (S6) in the Supplementary Materials). rhPSMA-7.3 served as an internal standard during AMSEC studies and was co-evaluated whenever new data were collected to assess the reproducibility of the method (n = 14).
For reference purposes, conventional SEC runs of HSA (100 µL, 3 mg/mL) and acetone (100 µL, 2% in PBS pH 7.4) with PBS (pH 7.4) as a mobile phase were executed. The retention time of HSA (tR,HSA) corresponded to the maximal MWapp,raw, theoretically observable in AMSEC runs in the case of continuous binding of a radioligand to HSA (equivalent to 100% HSA binding). The retention time of acetone (tR,acetone) served as a reference for a ligand with no interaction with HSA in AMSEC runs (equivalent to 0% HSA binding) and an actual physical molecular weight below the column fractionation range (this was the case for all investigated radioligands).
MWapp,raw values determined as described in Section 3.3.1. were normalized in order to account for ligand-specific influences on experimentally determined retention times and to establish quantitative comparability of the obtained MWapp,norm. values. The normalization was based on a SEC run (referred to as blank run) of a radioligand executed in analogy to the AMSEC run but using PBS (pH 7.4) without HSA as a mobile phase. The determined retention time tR,blank, together with the retention time tR,AMSEC from the AMSEC run, tR,HSA, and tR,acetone determined in Section 3.3.1, were used to calculate a normalized retention time tR,norm. for every radioligand (for formulae and details on the calculation, see Section 2. Results and Discussion). […]
(In general: Size exclusion chromatography separates by hydrodynamic size, large species first.)

A short description of series [2]: Blank SEC run of radioligand (PBS pH 7.4 without HSA). The note with it: PBS pH 7.4 without HSA as mobile phase; corresponds to 0% HSA binding. It counts as physicochemical. On the procedure:
To validate this hypothesis, blank runs (PBS pH 7.4 as mobile phase) of the radioligands on the SEC column were performed. The resulting retention times were termed tR,blank and represent the ligand-specific retention time that would correspond to 0% HSA binding in the AMSEC experiment. […] We concluded that unspecific electrostatic interactions between the highly negatively charged radioligand and the agarose/dextran-based matrix of the superdex column are present and lead to an elution prior to the expected cut-off volume. Consequently, apart from the radioligand’s binding to HSA in the AMSEC run, the unspecific interactions with the column matrix contribute to the determined MWapp,raw, thus hampering its informative value. […]
MWapp,raw values determined as described in Section 3.3.1. were normalized in order to account for ligand-specific influences on experimentally determined retention times and to establish quantitative comparability of the obtained MWapp,norm. values. […] The determined retention time tR,blank, together with the retention time tR,AMSEC from the AMSEC run, tR,HSA, and tR,acetone determined in Section 3.3.1, were used to calculate a normalized retention time tR,norm. for every radioligand (for formulae and details on the calculation, see Section 2. Results and Discussion). […]

The nature of series [3]: Calculated glomerular sieving coefficients (GSCcalc) from MWapp,norm. The note with it: from MWapp,norm. via sigmoidal fit of MW vs GSC of 12 human plasma proteins. An excerpt:
Therefore, when comparing the MWapp,norm. of different radioligands, not only their relative difference but also the absolute values of MWapp,norm. are of importance. […] These GSCcalc determined for all the PSMA radioligands (Table 2, Figure 5) inherently account for the exponential nature of the relationship between their albumin-mediated MWapp,norm. and MW-dependent GF and could, therefore, be a useful parameter to estimate differences in blood clearance by means of GF. The GSC is defined as the ratio of a compound’s concentration in the glomerular filtrate to that in the blood; thus, a GSC of 1 represents unhindered filtration through the capillary membrane in the glomerulus, while a lower GSC corresponds to a restricted filtration and, thus, a prolonged circulatory half-life. […] As an example, a GSCcalc of 0.408 was determined for rhPSMA-7.3, while an almost three-fold smaller GSCcalc of 0.138 was determined for rhPSMA-7.4. […] This would constitute a dramatic physiological effect that, in its extent, could not be predicted only based on subtle differences in molecular structure and other conventionally determined in vitro parameters. We, therefore, believe that the MWapp,norm. and GSCcalc obtained by AMSEC could be important parameters that, already at the preclinical stage of development, could help in the selection of promising therapeutic radioligands with pharmacokinetic profiles suitable for patient application.
A sigmoidal fit of molecular weights (MWs, in kDa) and corresponding glomerular sieving coefficients (GSCs) of 12 human plasma proteins (data taken from Norden et al.) was executed using OriginPro software. A dose-response model based on Equation (6) was applied:(6) GSC=A1+A2−A1/1+10^(LOGx0−MW)·p.
The values of bottom asymptote A1 and top asymptote A2 were set to 4.2∙10^−5 (GSC of IgG, data taken from Norden et al.) and 1 (equaling complete sieving), respectively. Curve fitting gave the center parameter LOGx0 = 19.36833 and the Hill slope p = −0.12108. GSCcalc values were calculated via implementation of fitting parameters and the experimentally determined MWapp,norm. in Equation (6).

Where “and” joins values, the source holds several entries; their conditions need not be identical. Equal entries are not always repeated.

T1 sequence (P02768 25-609): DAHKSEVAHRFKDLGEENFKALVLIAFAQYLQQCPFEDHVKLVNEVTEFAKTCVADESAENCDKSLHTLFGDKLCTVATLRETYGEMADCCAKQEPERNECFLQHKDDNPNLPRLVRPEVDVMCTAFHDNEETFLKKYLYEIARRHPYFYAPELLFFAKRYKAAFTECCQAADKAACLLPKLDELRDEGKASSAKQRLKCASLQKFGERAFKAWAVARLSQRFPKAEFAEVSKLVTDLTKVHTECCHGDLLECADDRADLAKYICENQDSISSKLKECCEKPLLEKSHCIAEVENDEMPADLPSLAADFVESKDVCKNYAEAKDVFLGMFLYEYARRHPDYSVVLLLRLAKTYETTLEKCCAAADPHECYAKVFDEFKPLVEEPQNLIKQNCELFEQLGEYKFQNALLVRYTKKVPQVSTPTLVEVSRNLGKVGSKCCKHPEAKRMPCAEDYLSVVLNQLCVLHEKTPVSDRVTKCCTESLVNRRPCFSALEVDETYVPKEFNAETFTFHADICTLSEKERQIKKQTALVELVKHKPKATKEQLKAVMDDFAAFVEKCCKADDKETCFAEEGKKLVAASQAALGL

For the compound `O=C(O)CC[C@H](NC(=O)N[C@@H](CCCCNC(=O)CCCCCCC(=O)NCCCC[C@@H](NC(=O)[C@@H](Cc1ccccc1)NC(=O)[C@@H](Cc1ccc(O)c(I)c1)NC(=O)CCC(C(=O)O)N1CCN(CC(=O)O)CCN(CC(=O)O)CCN(CC(=O)O)CC1)C(=O)O)C(=O)O)C(=O)O` (stereo partly shown) (177Lu complex, metal not drawn) [PSMA-I&T, reference compound], in series [1], the “tR,AMSEC (retention time in AMSEC run)” value was 20.983 min; the Retention factor k was 0.0013 and 0.001; the “MWapp,raw (raw apparent molecular weight)” value came to 5.4 kDa; the “MWapp,norm. (normalized apparent molecular weight)” value worked out at 1.9 kDa. Moreover, in series [1], the “tR,norm. (normalized retention time)” value was determined as 24.792 min and the “MWapp,raw in percentage of the MWapp,raw of rhPSMA-7.3” value is “approximately 18%”. For the same compound, in series [1] (effect of normalization), the “Relative reduction in MWapp,norm. compared to MWapp,raw” value is “around 60%”. For the same compound, the “tR,blank (retention time in blank run)” value in series [2] is 20.995 min.
On to `CC(C)(C)[Si](F)(c1ccc(C(=O)NC[C@@H](NC(=O)CC[C@H](C(=O)O)N2CCN(CC(=O)[O-])CCN(CC(=O)[O-])CCN(CC(=O)[O-])CC2)C(=O)N[C@H](CCCCNC(=O)CCC(=O)NCCC[C@@H](NC(=O)CC[C@H](NC(=O)N[C@@H](CCC(=O)O)C(=O)O)C(=O)O)C(=O)O)C(=O)O)cc1)C(C)(C)C.[177Lu+3]` [rhPSMA-7.1], for which, in series [1], the “tR,AMSEC (retention time in AMSEC run)” value is listed as 15.240 min, the Retention factor k was determined as 0.613, the “MWapp,raw (raw apparent molecular weight)” value is 26.5 kDa and the “MWapp,norm. (normalized apparent molecular weight)” value turned out to be 17.1 kDa. In series [1], the “tR,norm. (normalized retention time)” value is recorded as 16.824 min. Further, the “GSCcalc (calculated glomerular sieving coefficient)” value (shortened to “GSCcalc”) in series [3] is listed as 0.655.
For `CC(C)(C)[Si](F)(c1ccc(C(=O)NC[C@H](NC(=O)CC[C@H](C(=O)O)N2CCN(CC(=O)[O-])CCN(CC(=O)[O-])CCN(CC(=O)[O-])CC2)C(=O)N[C@H](CCCCNC(=O)CCC(=O)NCCC[C@@H](NC(=O)CC[C@H](NC(=O)N[C@@H](CCC(=O)O)C(=O)O)C(=O)O)C(=O)O)C(=O)O)cc1)C(C)(C)C.[177Lu+3]` [rhPSMA-7.2], in series [1], the “tR,AMSEC (retention time in AMSEC run)” value is listed as 14.564 min, the Retention factor k is on record as 0.680, the “MWapp,raw (raw apparent molecular weight)” value stood at 32.0 kDa and the “MWapp,norm. (normalized apparent molecular weight)” value was 21.7 kDa. Further, in series [1], the “tR,norm. (normalized retention time)” value is given as 15.962 min. Moreover, in series [1] (rhPSMA-7.2 vs rhPSMA-7.1, rhPSMA-10.1 vs rhPSMA-10.2), the “MWapp,norm. higher than that of the stereoisomer” value turned out to be 27%. Further, the “GSCcalc” value in series [3] is on record as 0.344.
Take `CC(C)(C)[Si](F)(c1ccc(C(=O)NC[C@H](NC(=O)CC[C@@H](C(=O)O)N2CCN(CC(=O)[O-])CCN(CC(=O)[O-])CCN(CC(=O)[O-])CC2)C(=O)N[C@H](CCCCNC(=O)CCC(=O)NCCC[C@@H](NC(=O)CC[C@H](NC(=O)N[C@@H](CCC(=O)O)C(=O)O)C(=O)O)C(=O)O)C(=O)O)cc1)C(C)(C)C.[177Lu+3]` [rhPSMA-7.4]: in series [1], the “tR,AMSEC (retention time in AMSEC run)” value was 14.143 min, the Retention factor k is recorded as 0.729, the “MWapp,raw (raw apparent molecular weight)” value is recorded as 36.0 kDa and the “MWapp,norm. (normalized apparent molecular weight)” value is given as 26.0 kDa. In series [1], the “tR,norm. (normalized retention time)” value is given as 15.316 min and the “MWapp,raw in percentage of the MWapp,raw of rhPSMA-7.3” value is on record as around 120%. In addition, the “GSCcalc” value in series [3] is reported as 0.138.
Take `CC(C)(C)[Si](F)(c1ccc(C(=O)NC[C@H](NC(=O)CN2CCN(CC(=O)[O-])CCN(CC(=O)[O-])CCN(CC(=O)[O-])CC2)C(=O)N[C@H](CCCCNC(=O)CCC(=O)NCCC[C@@H](NC(=O)CC[C@H](NC(=O)N[C@@H](CCC(=O)O)C(=O)O)C(=O)O)C(=O)O)C(=O)O)cc1)C(C)(C)C.[177Lu+3]` [rhPSMA-10.2]: in series [1], the “tR,AMSEC (retention time in AMSEC run)” value turned out to be 15.908 min, the Retention factor k stood at 0.543, the “MWapp,raw (raw apparent molecular weight)” value was found to be 22.0 kDa and the “MWapp,norm. (normalized apparent molecular weight)” value stood at 13.2 kDa. In series [1], the “tR,norm. (normalized retention time)” value turned out to be 17.736 min. The “GSCcalc” value in series [3] was 0.846.
